Data as given in US11560546B2, “Methods for neural conversion of human embryonic stem cells” (MEMORIAL SLOAN KETTERING CANCER CENTER, priority 2009, dated 2023).

How the values were obtained:
hESCs [1] = assay: qRT-PCR of FP, AN and regional markers during FP induction; assay type: cell-based, human
Procedure: (§1) For MS5 induction, established methods previously reported were used (Perrier et al., 2004). Feeder free neural induction was carried out as previously described (Chambers et al., 2009). Briefly, hESCs cultures were disaggregated using accutase for 20 minutes, washed using hESCs media and pre-plated on gelatin for 1 hour at 37° C. in the presence of ROCK inhibitor to remove MEFs. The nonadherent hESCs were washed and plated on matrigel at a density of 20,000 cells/cm2 on matrigel (BD) coated dishes in MEF conditioned hESCs media (CM) spiked with 10 ng/mL of FGF-2 and ROCK-inhibitor. The ROCK inhibitor was withdrawn, and hESCs were allowed to expand in CM for 3 days or until they were nearly confluent. The initial differentiation media conditions included knock out serum replacement (KSR) media with […] TGF-b inhibitor (SB431542, Tocris) and 500 ng/mL of Noggin (R&D). Upon day 5 of differentiation, increasing amounts of N2 media (25%, 50%, 75%) was added to the KSR media every two days while maintaining 500 ng/mL of Noggin and TGF-b inhibitor. For FP induction, Sonic C25II was added at 200 ng/ml.
Total RNA was extracted using an RNeasy kit (Qiagen). For each sample, 1 ug of total RNA was treated for DNA contamination and reverse transcribed using the Superscript III (Invitrogen). Amplified material was detected using Taqman probes and PCR mix (ABI) on a Mastercycler RealPlex2 (Eppendorf). All results were normalized to a HPRT control and are from 3 technical replicates of 3 independent biological samples at each data point.
FOXA2 is a key marker of FP development. However, FOXA2 is also highly expressed in the endoderm. To further characterize the hESC derived putative FP tissue, the inventors performed qRT-PCR analyses for candidate markers at Day 11. […] The inventors further characterized the nature of FOXA2+ putative FP cells using a panel of neural precursor, glial, neuronal and non-neural markers (FIG. 7). […] To distinguish FOXA2 expression in hESC derived FP versus endoderm tissue, the inventors differentiated hESCs to endoderm (D'Amour et al., 2005).
To gain further insight into the factors critical for human FP specification, high resolution temporal gene expression profiles of candidate markers were performed at 6 time points during the 11 day protocol.
The inventors contemplated the use of SIX6 as a putative marker of anterior FP identity. Thus SIX6 status of the hESC derived FP was used to mark respecification in response to known caudalizing agents such as FGF8, Wnt-1, and Retinoic Acid. Each of these caudalizing factors was added in combination with SHH and the resulting tissue was assessed for expression of the FP markers FOXA2 and NETRIN-1, the AN marker BF1, and putative anterior FP marker SIX6.

hESCs [2] = assay: Floor plate induction in NSB protocol, FOXA2 immunostaining; assay type: cell-based, human; details: NSB protocol
Procedure: as §1
Tissue was fixed using 4% paraformaldehyde and Picric acid for 15 minutes, washed with PBS, permeablized using 0.3% Triton X in PBS, and blocked using 10% Donkey Serum. Primary antibodies used for microscopy included PAX6 (Covance), TUJ1 (Covance), ZO1 (Zymed), BF1 (FOXG1, gift E.Lai), TH (Pelfreez), NKX6.1 (DSHB) and FOXA2 (SantaCruz).
Using this protocol, in combination with compositions and methods of the present inventions, the inventors aimed to optimize FP differentiation by adding Sonic C25II at different time points during neural induction and assaying for FOXA2 expression. Differentiation was initiated upon NSB exposure, and Sonic C25II was added at Day 1, Day 3, Day 5, or Day 7 (FIG. 2A).

[3] = tested on: rosette-stage neural cells; assay: Floor plate induction in stromal-feeder (MS5) derived / rosette-stage neural cells; assay type: cell-based, human
Procedure: as §1
hESC derived neural cells at the rosette stage were differentiated into both CNS and PNS progeny and patterned towards multiple cells fates along the A/P and D/V axis (Elkabetz et al., 2008). […] Specification of progenitor cells into FP tissue and cells during mouse development was thought to depend on SHH signaling within early neural lineages. The inventors tested whether rosette-stage neural cells were competent to undergo FP specification in response to SHH. High concentrations of SHH were needed to induce FP during mouse development (Roelink et al., 1994; Ericson et al., 1996). Recombinant N-terminal SHH has a limited activity range due to the lack of posttranslational modifications required for full SHH action. Recently, a modified version of recombinant SHH became available where SHH was tethered to two Isoleucines (Sonic C25II, R&D Systems), mimicking more closely the potency of mammalian SHH protein.
The majority of cells retained rosette cytoarchitecture and staining for the AN marker BF1 as described previously (FIG. 1A) (Elkabetz et al., 2008).
Based on the hypothesis that FP specification in the mouse occurs at early developmental stages, at the time of or prior to neural induction, the inventors repeated SHH induction studies at Day 9, the time of rosette specification, using classic stromal-feeder mediated neural induction protocols (Elkabetz et al., 2008). Under this paradigm the inventors noticed a drastic change in cell morphology restricted to the cells treated with SHH-C25II (FIG. 1B).

DKK-1 = DKK-1 transcript (qPCR) and protein in medium (ELISA); assay type: cell-based, human; details: as early as 2 days post treatment
[4] = most functional assays; cited from earlier work

Substance: Sonic C25II: modified recombinant SHH tethered to two Isoleucines (R&D Systems); 'SHH' in FP induction examples, added at 200 ng/ml
- increase in SIX6 mRNA levels (hESCs [1]; Day 5 of differentiation, FP induction versus NSB control): About 50,000 fold
- PAX6 and BF1 expression (hESCs [1]; day 7, versus NSB): drastic reduction in PAX6 and BF1
- FOXA2 yield with extended treatment beyond Day 11 (hESCs [2]): did not increase FOXA2 yield
- FOXA2+ cells (of total cells) (hESCs [2]; added starting at day 1): about 65%
- concentrations achieving induction of FOXA2+ cells and decrease in BF1 and PAX6 ([3]; added at Day 9, stromal-feeder neural induction): 125 to 500 ng/mL
- induction of FOXA2+ cells ([3]; added at Day 9, stromal-feeder neural induction, Day 21): robust upregulation of FOXA2+
- FP marker (FOXA2) expression on established rosette-stage neural cells ([3]; dose-response, added at Day 15): did not yield cells expressing FP markers
- DKK-1 mRNA and protein levels (DKK-1): drastic reduction
- potency relative to non-modified N-terminal SHH [4]: ~10 times
